From US9156881B2, “Tripeptide KDPT for antiapoptotic treatment” (WESTFAELISCHE WILHELMS-UNIVERSITAET MUENSTER, priority 2011, dated 2015)

How the values were obtained:
[1] = test system: caco-2 cells (human intestinal epithelial cells); assay: M30-ApoptosisSense ELISA (cytokeratin 18) apoptosis rate in intestinal epithelial cells; type: cell-based; details: p<0.05, FIG. 1
Description: The apoptosis rate in epithelial cells was measured by the M30-ApoptosisSense ELISA
(PEVIVA, Bromma, Sweden), detecting cytokeratin 18 with a specific monoclonal M30 antibody, whereas before cytokeratin 18 was cleaved by the enzyme caspase. The caco-2 cells (human intestinal epithelial cells) grew semiconfluent in cell culture flasks, before plating them on a 6 well plate. One plate was stimulated with 10^−5 and 10^−6 M KdPT solved in routine medium (SFM, white column), the control plate was stimulated with the routine-medium alone.

[2] = test system: human dermal microvascular endothelial cells (HMEC); assay: M30-ApoptosisSense ELISA (cytokeratin 18) apoptosis rate in HMEC; type: cell-based
Description: To further elucidate the impact of KdPT administration on apoptosis in a different human cell line, additional experiments were performed in human dermal microvascular endothelial cells (HMEC) which are endothelial cells. The apoptosis rate in epithelial cells was measured by the M30-ApoptosisSense ELISA (PEVIVA, Bromma, Sweden), detecting cytokeratin 18 with a specific monoclonal M30 antibody, whereas before cytokeratin 18 was cleaved by the enzyme caspase. The HMEC cells grew semiconfluent in cell culture flasks, before plating them on a 6 well plate. One plate was stimulated with 10-5 and 10-6 M KdPT solved in routine medium (SFM, white column), the control plate was stimulated with the routine-medium alone.

[3] = test system: murine DSS colitis; assay: Epithelial apoptosis rate in murine DSS-colitis (anti-active Caspase 3 staining of colon sections); type: in vivo; details: DSS-treated WT mice, KdPT 10 μg/day/animal i.p. daily, vs PBS control, P<0.05
Description: To further evaluate the impact of KdPT on the epithelial apoptosis rate in vivo, the murine DSS colitis was performed. Dextran sodium sulfate (DSS)-induced colitis was accomplished as described in Bettenworth Am J Pathol 2011. WT mice were given 3% DSS (ICN Biomedicals Inc., Eschwege, Germany) in drinking water for 5 days, and disease activity was monitored daily by body weight measurement. Afterwards, the mice received regular drinking water again to monitor the improvement in inflammation. PBS-diluted KdPT (10 μg/day/animal; Bachem Americas Inc., Torrance, Calif.) was given daily by intraperitoneal (i.p.). injection until the end of the experiment. Control mice received PBS only.
At the end of the experiment, the mice were sacrificed and the colons removed. The colons were opened, embedded in Tissue-Tek O.C.T. (Sukura Finetek Europe, Zoeterwoude, The Netherlands), and kept frozen at −80° C. until further use. […] Immunhistological stainings were analyzed by two blinded investigators.
To assess apoptosis rate, the number of anti-active Caspase 3 positive cells per total crypt epithelial cells was counted. The number of anti-active Caspase 3 positive cells in colonic tissue was assessed as a […], determined after KdPT administration in DSS-treated mice.

[4] = test system: experimental colitis; details: both colitis models (DSS, IL-10 gene-deficient mice); cited from earlier work
[5] = test system: colonic epithelial cells; details: cited from earlier work
[6] = test system: melanogenesis; details: in vitro; cited from earlier work
[7] = test system: human sebocytes; details: cited from earlier work

(I)Lys-(d)Pro-(I)Thr [KdPT]
apoptosis rate on costimulation with KdPT (in words) [1]: significant reduction of the apoptosis rate | apoptosis rate (M30 ELISA, cytokeratin 18) ([2]; HMEC costimulated with KdPT, 24 h incubation, control 1150.5 U/I): 965.9 U/I | reduction of apoptosis rate ([2]; HMEC, 10-5 and 10-6 M KdPT, 24 h incubation, vs control plate, p=0.002): 19.2% | apoptosis rate on costimulation with KdPT (in words) ([2]; HMEC, FIG. 2): significant reduction of the apoptosis rate | number of anti-active Caspase 3 positive cells per total crypt epithelial cells [3]: dramatically decreased | severity of inflammation [4]: markedly reduced severity of inflammation | transepithelial electrical resistance ([5]; after stimulation with interferon-γ/tumor necrosis factor-α): improved transepithelial electrical resistance | closure of wounds ([5]; colonic epithelial cells): accelerated closure of wounds | proliferation ([5]; colonic epithelial cells): increased proliferation | melanogenesis [6]: did not affect melanogenesis | IL-1(beta)-mediated cytokine expression and signaling [7]: suppresses
